US8338422B2, “Indolin-2-ones and aza-indolin-2-ones” (Janssen Pharmaceutica NV, priority 2007, dated 2012)
Several values for one entry are separate records, joined by “and”; a condition that tells them apart may be missing. Equal entries are not always repeated.

How the values were obtained:
Type in all cases: biochemical
PLK4 (h) = PLK4 (h) (Homo sapiens, UniProt O00444); assay: PLK-4 human kinase assay (SPA); conditions: for IC50: read-out: PLK4 pIC50 (converted)
Protocol: (§1) The in vitro inhibition of a panel of kinases was assessed using either the scintillation proximity assay (SPA) as described by Cook, N. D. et al., Advances in Experimental Medicine and Biology (1991), 36; p. 525-528; or the Fluorescence Resonance Energy Transfer (FRET) technology as described by Rodems, S. M. et al., Assay Drug Develop. Technol. (2002), 1; p. 9-19.
(§2) In the SPA technology the activity of the kinase of interest is measured using an appropriate biotinylated substrate that is incubated with the aforementioned kinase protein in the presence of (^33P) radiolabeled ATP. (^33P) Phosporylation of the substrate is subsequently measured through binding of the phosphorylated substrate to streptavidine coated beads that are based on the scintillant poly(vinyl toluene) (PVT-Beads). The scintillation intensity is detected by imaging on Leadseeker.
(§3) All kinases are pre-diluted to a 10× working concentration prior to addition into the assay. The composition of the dilution buffer for each kinase is detailed below.
In a final reaction volume of 30 μl PLK4 (h) (19 μg/ml) is incubated with 50 mM Hepes pH 8.0, 10 mM MgCl2, 50 mM NaCl, 1 mM NaF, 1 mM DTT, 10 μM of peptide Biotin-RPRGQRDSSYYWE-OH, 1 μM ATP and 2 nM [γ-^33P-ATP] (6.0 μCi/ml). After incubation of 60 minutes at room temperature, the reaction is stopped by addition of 40 μl, of stop solution containing 8.7 mM EDTA, BSA 0.17%, 0.17% Triton X-100, 1.7 mg/ml SPA beads (GE-healthcare). The plate is centriguged and read for Scintillation imaging on Leadseeker.

AuroraB (h) = AuroraB (h) (Homo sapiens, UniProt Q96GD4); assay: Aurora-B human kinase assay (SPA); conditions: for IC50: read-out: AuroraB pIC50 (converted)
Chain of AuroraB (h) (Q96GD4 whole entry): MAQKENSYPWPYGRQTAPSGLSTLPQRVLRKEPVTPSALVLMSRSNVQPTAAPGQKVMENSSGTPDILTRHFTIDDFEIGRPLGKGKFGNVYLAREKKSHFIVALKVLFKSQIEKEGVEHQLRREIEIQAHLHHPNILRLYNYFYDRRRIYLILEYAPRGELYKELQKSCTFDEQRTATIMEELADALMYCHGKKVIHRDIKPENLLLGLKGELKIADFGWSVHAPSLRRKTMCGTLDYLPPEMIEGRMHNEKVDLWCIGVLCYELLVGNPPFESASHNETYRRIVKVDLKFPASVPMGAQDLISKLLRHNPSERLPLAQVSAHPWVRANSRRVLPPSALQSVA
Protocol: as §1, §2, §3
In a final reaction volume of 30 μl, AuroraB (h) (0.5 μg/ml) is incubated with 60 mM Hepes pH 7.5, 3 mM MgCl2, 3 mM MnCl2, 3 μM Na3VO4, 0.05 mg/ml PEG, 2 mM DTT, 3 μM Biotin-[…]-OH, 0.5 μM ATP and 2.2 nM [γ-^33P-ATP] (6.8 μCi/ml). After incubation of 60 minutes at room temperature, the reaction is stopped by addition of 40 μL of stop solution containing 8.7 mM EDTA, BSA 0.17%, 0.17% Triton X-100, 5 mg/ml SPA beads (GE-healthcare). The plate is centriguged and read for Scintillation imaging on Leadseeker.

GSK3β (h) = GSK3β (h) (Homo sapiens, UniProt P49841); assay: GSK-3β human kinase assay (SPA); conditions: for IC50: read-out: GSK3B pIC50 (converted)
Chain of GSK3β (h) (P49841 whole entry): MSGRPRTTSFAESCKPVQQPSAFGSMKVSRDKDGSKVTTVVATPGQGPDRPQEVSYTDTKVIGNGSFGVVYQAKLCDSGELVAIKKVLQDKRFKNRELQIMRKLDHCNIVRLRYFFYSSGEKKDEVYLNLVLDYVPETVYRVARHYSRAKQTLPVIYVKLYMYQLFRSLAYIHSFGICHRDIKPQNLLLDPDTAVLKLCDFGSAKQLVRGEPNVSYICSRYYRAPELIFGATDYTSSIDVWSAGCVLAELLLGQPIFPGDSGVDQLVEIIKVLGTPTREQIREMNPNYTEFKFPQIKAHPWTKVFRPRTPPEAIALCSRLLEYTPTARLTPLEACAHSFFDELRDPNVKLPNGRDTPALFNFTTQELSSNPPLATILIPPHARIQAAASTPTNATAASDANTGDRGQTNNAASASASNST
Protocol: as §1, §2, §3
In a final reaction volume of 30 μl, GSK3β (h) (1 μg/ml) is incubated with 25 mM Tris pH 7.4, 10 mM MgCl2, 1 mM DTT, 1 μM peptide Biotin-KRREILSRRPSYR-OH, 1 μM ATP and 2 nM [γ-^33P-ATP] (6.0 μCi/ml). After incubation of 60 minutes at room temperature, the reaction is stopped by addition of […] of stop solution containing 8.7 mM EDTA, BSA 0.17%, 0.17% Triton X-100, 6.25 mg/ml SPA beads (GE-healthcare). The plate is centriguged and read for Scintillation imaging on Leadseeker.

CDK1/CyclinB (h) = CDK1/CyclinB (h) (Homo sapiens, UniProt P06493); assay: CDK1/CyclinB human kinase assay (FRET); conditions: for IC50: read-out: CDK1 pIC50 (converted)
Chain of CDK1/CyclinB (h) (P06493 whole entry): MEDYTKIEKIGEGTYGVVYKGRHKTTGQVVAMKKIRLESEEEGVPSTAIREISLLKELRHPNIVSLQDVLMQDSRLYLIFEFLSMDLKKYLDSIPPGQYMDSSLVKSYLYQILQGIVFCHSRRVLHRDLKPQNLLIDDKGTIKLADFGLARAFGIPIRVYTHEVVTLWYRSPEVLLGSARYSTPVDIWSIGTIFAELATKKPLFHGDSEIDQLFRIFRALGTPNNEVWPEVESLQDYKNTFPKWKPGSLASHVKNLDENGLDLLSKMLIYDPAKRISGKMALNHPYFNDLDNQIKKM
Chain of CDK1/CyclinB (h) (P14635 whole entry partner): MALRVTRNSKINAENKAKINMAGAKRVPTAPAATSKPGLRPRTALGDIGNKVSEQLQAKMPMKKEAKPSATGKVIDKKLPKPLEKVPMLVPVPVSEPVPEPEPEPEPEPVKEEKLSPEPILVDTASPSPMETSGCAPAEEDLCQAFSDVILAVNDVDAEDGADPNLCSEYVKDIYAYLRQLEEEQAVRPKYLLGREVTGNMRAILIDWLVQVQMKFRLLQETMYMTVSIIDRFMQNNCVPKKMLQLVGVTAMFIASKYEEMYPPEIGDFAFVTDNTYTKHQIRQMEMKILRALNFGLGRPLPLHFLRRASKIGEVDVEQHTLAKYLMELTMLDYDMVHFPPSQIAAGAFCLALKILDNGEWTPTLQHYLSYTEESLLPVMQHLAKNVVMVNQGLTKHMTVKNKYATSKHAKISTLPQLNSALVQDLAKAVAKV
Protocol: as §1
In the FRET technology the activity of the kinase of interest is measured using an appropriate substrate that is labeled with two fluorophores (coumarin and fluorescein). Phosphorylation is determined using a developing reagent comprising a protease that recognizes and cleaves nonphosphorylated peptides. Cleavage will disturb the FRET between the fluorescein and coumarin on the peptide. Uncleaved, phosphorylated peptides maintain the FRET signal. A ratiometric readout of the donor emission over the acceptor emission quantitates the reaction process.
as §3
In a final reaction volume of 10 μl, CDK1/CyclinB (h) (0.2 μg/ml) is incubated with 50 mM Hepes pH 7.5, 10 mM MgCl2, 1 mM EGTA, 0.01% Brij-35, 2 μM Z'lyte Ser/Thr peptide 12 and 10 μM ATP (Invitrogen's FRET assay). After incubation of 60 minutes at room temperature, the reaction is stopped by addition of 5 μL development reagent containing protease mix. After 60 minutes room temperature the development reaction is stopped by adding 5 μl stop solution. The plate is then read in fluorescence plate reader with excitation: 390 nm and dual emission: 460 and 538 nm. Emission ratio is determined to the formula=Emission signal intensity at 460 nm/Emission signal intensity at 538 nm.

Chain of PLK4 (h) (O00444 whole entry): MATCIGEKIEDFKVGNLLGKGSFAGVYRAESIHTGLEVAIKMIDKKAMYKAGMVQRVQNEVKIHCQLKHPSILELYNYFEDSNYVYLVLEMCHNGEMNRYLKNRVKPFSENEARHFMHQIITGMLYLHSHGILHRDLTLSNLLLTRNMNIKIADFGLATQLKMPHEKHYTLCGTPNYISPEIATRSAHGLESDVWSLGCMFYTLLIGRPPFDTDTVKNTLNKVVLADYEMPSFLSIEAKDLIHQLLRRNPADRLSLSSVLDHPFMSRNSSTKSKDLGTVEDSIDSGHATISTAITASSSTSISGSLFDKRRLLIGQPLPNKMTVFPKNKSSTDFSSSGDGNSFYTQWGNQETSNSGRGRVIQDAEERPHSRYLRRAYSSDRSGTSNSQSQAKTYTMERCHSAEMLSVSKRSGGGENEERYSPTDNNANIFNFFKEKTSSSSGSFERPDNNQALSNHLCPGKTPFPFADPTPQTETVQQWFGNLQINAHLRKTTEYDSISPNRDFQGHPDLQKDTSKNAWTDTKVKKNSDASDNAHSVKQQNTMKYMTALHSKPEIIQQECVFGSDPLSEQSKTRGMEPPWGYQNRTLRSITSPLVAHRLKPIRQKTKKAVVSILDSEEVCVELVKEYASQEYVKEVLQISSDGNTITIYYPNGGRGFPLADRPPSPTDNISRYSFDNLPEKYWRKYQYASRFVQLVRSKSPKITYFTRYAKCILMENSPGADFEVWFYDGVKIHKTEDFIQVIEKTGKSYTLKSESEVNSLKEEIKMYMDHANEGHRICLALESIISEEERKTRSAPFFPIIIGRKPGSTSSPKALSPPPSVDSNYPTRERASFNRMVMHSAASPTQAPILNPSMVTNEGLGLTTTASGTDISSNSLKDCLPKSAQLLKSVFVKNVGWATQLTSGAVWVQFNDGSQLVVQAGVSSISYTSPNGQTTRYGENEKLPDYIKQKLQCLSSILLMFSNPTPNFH

Compound | PLK4 pIC50 (PLK4 (h)) | AuroraB pIC50 (AuroraB (h)) | GSK3B pIC50 (GSK3β (h)) | CDK1 pIC50 (CDK1/CyclinB (h)) | IC50 (PLK4 (h)) | IC50 (AuroraB (h)) | IC50 (GSK3β (h)) | IC50 (CDK1/CyclinB (h)) [µM]
COc1ccc2cc1OCCCCC(=O)N(C)CCCNc1ncnc3c1C(=CN2)C(=O)N3 (mixture of isomers) [Compound 62] | 6.9 | 7.75 | 7.57 | 6.46 | – | – | – | –
COc1ccc2cc1OCCCCCC(=O)N(C)CCCNc1ncnc3c1/C(=C/N2)C(=O)N3 [Compound 66] | – | – | – | – | 0.479 µM | 0.347 µM | 0.0776 µM | 2.34
CN1CCCCC(=O)N(C)CCCNc2ncnc3c2/C(=C/Nc2ccc(N4CCOCC4)c(c2)C1)C(=O)N3 [Compound 96] | – | – | – | – | 0.741 µM | > 10 µM | 0.708 µM | 3.39
CN1CCCC(=O)N(C)CCNc2ncnc3c2/C(=C/Nc2ccc(N4CCOCC4)c(c2)C1)C(=O)N3 [Compound 94] | – | – | – | – | 5.13 µM | > 10 µM | 1.05 µM | > 10
CN1CCNc2ncnc3c2/C(=C/Nc2cccc(c2)OCCN(C)[C@H](CO)C1=O)C(=O)N3 [Compound 164] | – | – | – | – | 3.63 µM | 5.25 µM | 0.759 µM | –
CN1CCNc2ncnc3c2/C(=C/Nc2ccc(Cl)c(c2)OCCCCCC1=O)C(=O)N3 [Compound 57] | – | – | – | – | 4.79 µM | 1.07 µM | 0.263 µM | > 10
COCCN1CCOc2cc(ccc2Cl)N/C=C2\C(=O)Nc3ncnc(c32)NCCCN(C)C(=O)C1 [Compound 205] | – | – | – | – | – | > 10 µM | 0.0933 µM | –
CN1CCCCCC(=O)N(C)CCNc2ncnc3c2/C(=C/Nc2cccc(c2)C1)C(=O)N3 [Compound 80] | – | – | – | – | 1.41 µM | > 10 µM | 4.68 µM | > 10
CN1CCNc2ncnc3c2/C(=C/Nc2ccc(N4CCOCC4)c(c2)OCCCC1=O)C(=O)N3 [Compound 8] | – | – | – | – | > 10 µM | > 10 µM | > 10 µM | > 10
COCCN1CCCOc2cc(ccc2Cl)N/C=C2\C(=O)Nc3ncnc(c32)NCCN(C)C(=O)C1 [Compound 174] | – | – | – | – | > 10 µM | > 10 µM | 1.62 µM and 1.86 µM | –
O=C1Nc2ncnc3c2/C1=C/Nc1cccc(c1)OCCN1C[C@H](O)C[C@@H]1C(=O)N1CCN3CC1 [Compound 171] | – | – | – | – | > 10 µM | > 10 µM | 0.309 µM | –
O=C1Nc2ncnc3c2C1=CNc1cc(ccc1Cl)OCCCCCC(=O)N1CCN3CC1 (mixture of isomers) [Compound 19] | <5 | <5 | – | – | – | – | – | –
CN1CC(=O)NCC#Cc2cccc3c2/C(=C/Nc2cccc(c2)S1(=O)=O)C(=O)N3 [Compound 4] | – | – | – | – | 0.102 µM | > 10 µM | – | –
COCCN1CCCOc2cc(ccc2OC)N/C=C2\C(=O)Nc3ncnc(c32)NCCNC(=O)C1 [Compound 202] | – | – | – | – | – | 3.98 µM | 4.68 µM | –
CN1CCCOc2cc(ccc2Cl)N/C=C2\C(=O)Nc3ncnc(c32)N2CCN(CC2)C(=O)[C@H]1CO [Compound 181] | – | – | – | – | > 10 µM | > 10 µM | 2.24 µM | –
COCCN1CCCOc2cccc(c2)N/C=C2\C(=O)Nc3ncnc(c32)NCCN(C)C(=O)C1 [Compound 162] | – | – | – | – | 3.09 µM | > 10 µM | 2.51 µM | –
COCCN1CCCOc2cc(ccc2Cl)N/C=C2\C(=O)Nc3ncnc(c32)N2CCN(CC2)C(=O)C1 [Compound 180] | – | – | – | – | > 10 µM | > 10 µM | 3.47 µM and 5.37 µM | –
COc1ccc2cc1OCCCCCCC(=O)N(C)CCCN(C)c1ncnc3c1/C(=C/N2)C(=O)N3 [Compound 85] | – | – | – | – | 5.01 µM | > 10 µM | 1.1 µM | –

Compound | PLK4 pIC50 (PLK4 (h)) | AuroraB pIC50 (AuroraB (h)) | GSK3B pIC50 (GSK3β (h)) | CDK1 pIC50 (CDK1/CyclinB (h)) | IC50 (PLK4 (h)) | IC50 (AuroraB (h)) | IC50 (GSK3β (h)) | IC50 (CDK1/CyclinB (h)) [µM]
CN1CCC(=O)N(C)CCNc2ncnc3c2/C(=C/Nc2ccc(Cl)c(c2)OCC(O)C1)C(=O)N3 (stereo not shown) [Compound 104] | – | – | – | – | – | 3.39 µM | 1.1 µM | –
CN1CCCNc2ncnc3c2/C(=C/Nc2ccc(Cl)c(c2)OCCN(C)[C@H](CO)C1=O)C(=O)N3 [Compound 177] | – | – | – | – | 4.37 µM and 7.24 µM | 2.51 µM and 6.46 µM | 0.0661 µM and 0.0457 µM | –
CN1CCCNc2ncnc3c2/C(=C/Nc2cccc(c2)OCCN(C)[C@H](CO)C1=O)C(=O)N3 [Compound 103] | – | – | – | – | 1.86 µM and 4.17 µM | 8.71 µM and 7.76 µM | – | –
CN1CCCC(=O)N2CCN(CC2)c2ncnc3c2C(=CNc2cccc(c2)C1)C(=O)N3 (mixture of isomers) [Compound 11] | – | – | – | – | 3.09 µM | – | – | –
CN1CCNc2ncnc3c2/C(=C/Nc2cccc(c2)OCCCN(C)[C@H](CO)C1=O)C(=O)N3 [Compound 173] | – | – | – | – | 4.27 µM | > 10 µM | 0.575 µM | –
CN1CCCNc2ncnc3c2/C(=C/Nc2cccc(c2)OCCN(C)[C@H](CO)C1=O)C(=O)N3 [Compound 102] | – | – | – | – | 1.95 µM | 6.46 µM | 0.0776 µM | –
CN1CCNc2ncnc3c2/C(=C/Nc2ccc(Cl)c(c2)OCCN2C[C@H](O)C[C@@H]2C1=O)C(=O)N3 [Compound 194] | – | – | – | – | 5.13 µM | > 10 µM | 0.457 µM | –
COc1ccc2cc1OCCCN(C)[C@H](CO)C(=O)N1CCN(CC1)c1ncnc3c1/C(=C/N2)C(=O)N3 [Compound 204] | – | – | – | – | – | > 10 µM | 1.35 µM | –
O=C1Nc2ncnc3c2C1=CNc1ccc(Cl)c(c1)OCCCCC(=O)N1CCN3CC1 (mixture of isomers) [Compound 12] | – | – | – | – | > 10 µM | – | – | –
O=C1Nc2ncnc3c2/C1=C/Nc1cccc(c1)OCCCN1C[C@H](O)C[C@@H]1C(=O)N1CCN3CC1 [Compound 175] | – | – | – | – | > 10 µM | > 10 µM | 1.58 µM and 1.35 µM | –
CN1CCNc2ncnc3c2/C(=C/Nc2cccc(c2)OCCN2C[C@H](O)C[C@@H]2C1=O)C(=O)N3 [Compound 166] | – | – | – | – | 2.19 µM | > 10 µM | 1.02 µM | –
COc1ccc2cc1OCCCCCC(=O)N(C)CCCN(C)c1ncnc3c1/C(=C/N2)C(=O)N3 [Compound 84] | – | – | – | – | 2.95 µM | > 10 µM | 0.372 µM | –
CN1CCNc2ncnc3c2/C(=C/Nc2ccc(Cl)c(c2)OCCCN(C)[C@H](CO)C1=O)C(=O)N3 [Compound 190] | – | – | – | – | > 10 µM | > 10 µM | 1.55 µM | –
CN1CCCCC(=O)N(C)CCNc2ncnc3c2/C(=C/Nc2ccc(N4CCOCC4)c(c2)C1)C(=O)N3 [Compound 93] | – | – | – | – | 7.24 µM | > 10 µM | – | > 10
O=C1Nc2ncnc3c2/C1=C/Nc1ccc(Cl)c(c1)OCCN1C[C@H](O)C[C@@H]1C(=O)N1CCN3CC1 [Compound 196] | – | – | – | – | – | > 10 µM | 1.51 µM | –
COCCN1CCOc2cccc(c2)N/C=C2\C(=O)Nc3ncnc(c32)NCCN(C)C(=O)C1 [Compound 161] | – | – | – | – | 5.13 µM | 7.41 µM | 0.832 µM | –
O=C1COc2cccc(c2)N/C=C2\C(=O)Nc3ncnc(c32)N2CCN(CC2)C[C@@H](Cc2ccccc2)N1 [Compound 101] | – | – | – | – | 3.16 µM | > 10 µM | 0.457 µM | –
COCCN1CCOc2cccc(c2)N/C=C2\C(=O)Nc3ncnc(c32)NCCCN(C)C(=O)C1 [Compound 163] | – | – | – | – | 0.589 µM | 6.46 µM | 0.0631 µM | –
